Data as given in paper PMC10730845, “Endoxifen downregulates AKT phosphorylation through protein kinase C beta 1 inhibition in ERα+ breast cancer” (NPJ Breast Cancer, 2023).

How the values were obtained:
T47D-LTED cells [1] = assay: IncuCyte Annexin V apoptosis assay, T47D-LTED; format: cell-based, human; settings: CSS medium, 48 h; 5 µM
Experimental: MCF7AC1 and T47D-LTED cells were plated at a density of 2000 cells per well in CSS medium for 24 h. Cells were then co-treated for 48 h with vehicle or drug, IncuCyte Annexin V green reagent (#4642, 1:300), an early-stage apoptosis marker, and IncuCyte NucLight rapid red reagent (#4717, 1:500), a dye that stains all cell nuclei red, in CSS medium. MCF7AC1^caAKT cells were plated at a cell density of 2000 cells per well in CSS medium in the absence or presence of cumate for 48 h and then co-treated with vehicle or drug, Annexin V green and NucLight rapid red reagents in the absence or presence of cumate for an additional 48 h in CSS medium.
(§1) Supplementary Figure 6. […] Cell viability is assessed by the crystal violet assay. b, MCF7AC1 cells were co-treated with vehicle control or 0.01, 0.1 and 5 µM MK-2206 and IncuCyte Annexin V green and NucLight rapid red reagents in CSS medi um for 48 hours. […]
Cells were plated at a density of 2000 cells per well. c, MCF7AC1 cells were treated with vehicle control or 0.01, 0.1 and 5 µM MK-2206 in CSS medium for 24 hours. […] Cell viability is assessed by the crystal violet assay. f, Parental T47D and T47D-LTED cells were processed for protein lysates. […] Percentage of cells undergoing apoptosis was calculated as mentioned in b. i, T47D-LTED cells were treated with vehicle control or 0.01, 0.1 and 5 µM MK -2206 in CSS medium for 24 hours . […]

[2] = tested on: PKCβ1 and AKT^Ser473 phosphorylation in HEK293F cells; assay: Immunoblot of PKCβ1 and pAKT^Ser473, HEK293F; format: cell-based, human; settings: 5 µM, 2 h pretreatment, 100 nM insulin 1 h
Source text: To determine whether the observed effects of ENDX on PKCβ1 degradation and AKT^Ser473 phosphorylation inhibition are dependent on the presence of ERα, we additionally evaluated ENDX effects on PKCβ1 degradation and AKT^Ser473 phosphorylation in the ER negative (ER-) MDAMB231 breast cancer cells and nonbreast HEK293F cells, a human embryonic kidney cell line, both of which express higher amounts of PKCβ1 compared to ERα+ MCF7AC1 cells (Supplementary Fig. 5a). […] To determine whether the addition of ERα to the MDAMB231 cell line could facilitate ENDX effects on PKCβ1, we performed doxycycline (dox)-induced ERα protein expression in MDAMB231 cells and evaluated ENDX effects on PKCβ1 using the above-mentioned experimental conditions. […] Additionally, we pretreated MDAMB231 and HEK293F cells with or without 5 µM ENDX for 1 h followed by 0 or 200 nM PMA treatment for 20 min and evaluated effects on PKCβ1.
Supplementary Figure 5. Effects of ENDX on PKCβ1, phospho -PKCB1Ser661 and phospho-AKTSer473 expression levels in ERα- breast cancer cells. a, Basal expression of PKCβ1 and ERα in the indicated cell lines. […]

PKC gamma (PKCg) = PKC gamma (PKCg) (Homo sapiens, UniProt P05129); assay: In vitro kinase assay, PKC gamma; format: biochemical; settings: 10 μM ATP
Source text: (§2) Supplementary Table 4. In vitro kinase assay showing the IC 50 concentration of ENDX and
(§3) of the 12 PKC family members.
(§4) (1 picture or pasted object on this page, not shown here)

T47D-LTED cells [3] = assay: Crystal violet cell viability assay, T47D-LTED; format: cell-based, human; settings: CSS media, six days; 5 µM
Experimental: Cells were plated at a density of 2000 cells per well. Cell viability of (i) vehicle or drug treated MCF7AC1 and T47D-LTED cells in CSS medium, (ii) siNT or siPKCβ-transfected MCF7AC1 cells in CSS medium and (iii) T47D cells in FBS versus CSS medium were analyzed by crystal violet staining assay after 6 days of treatment or siRNA transfection as previously described. Cell viability was calculated as the average absorbance of the drug treated cells divided by the average absorbance of the vehicle treated cells × 100.
as §1
Cells were plated at a density of 2000 cells per well. c, MCF7AC1 cells were treated with vehicle control or 0.01, 0.1 and 5 µM MK-2206 in CSS medium for 24 hours. […] Cell viability is assessed by the crystal violet assay. f, Parental T47D and T47D-LTED cells were processed for protein lysates. […] Cell viability is assessed by the crystal violet assay. h, T47D-LTED cells were co-treated with vehicle control or 0.01, 0.1 and 5 µM MK -2206 and IncuCyte Annexin V green and NucLight rapid red reagents in CSS medium for 48 hours. […] Cell viability is assessed by the crystal violet assay. […]

PKC thetha (PKCq) = PKC thetha (PKCq) (Homo sapiens, UniProt Q04759); assay: In vitro kinase assay, PKC thetha; format: biochemical; settings: 10 μM ATP
Source text: . The IC50 concentrations of these drugs in inhibiting PKC kinase activity are provided in Supplementary Table 4.
as §2, §3
*: not available due to no inhibition or compound activity that could not be fit to an IC50 curve.
Staurosporine serves as the positive control.
as §4

Sequence of PKC thetha (PKCq) (Q04759 whole entry): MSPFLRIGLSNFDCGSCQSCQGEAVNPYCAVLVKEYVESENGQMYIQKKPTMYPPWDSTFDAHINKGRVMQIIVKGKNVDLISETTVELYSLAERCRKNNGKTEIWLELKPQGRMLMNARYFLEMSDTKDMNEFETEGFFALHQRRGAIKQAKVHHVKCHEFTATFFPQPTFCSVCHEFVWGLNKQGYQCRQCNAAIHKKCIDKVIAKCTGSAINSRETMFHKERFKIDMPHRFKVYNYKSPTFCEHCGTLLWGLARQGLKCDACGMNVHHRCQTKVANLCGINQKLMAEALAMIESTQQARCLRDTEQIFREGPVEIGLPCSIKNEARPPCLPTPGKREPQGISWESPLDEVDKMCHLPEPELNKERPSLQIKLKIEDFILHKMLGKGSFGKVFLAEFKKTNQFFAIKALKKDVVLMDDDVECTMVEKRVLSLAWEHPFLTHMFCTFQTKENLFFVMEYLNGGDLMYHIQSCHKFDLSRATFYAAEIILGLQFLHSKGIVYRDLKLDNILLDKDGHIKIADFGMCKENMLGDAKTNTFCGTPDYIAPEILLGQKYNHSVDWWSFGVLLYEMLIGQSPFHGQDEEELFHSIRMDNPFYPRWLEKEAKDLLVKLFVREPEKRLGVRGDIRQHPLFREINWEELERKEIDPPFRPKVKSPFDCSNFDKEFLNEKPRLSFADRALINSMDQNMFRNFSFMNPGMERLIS

## CC/C(=C(\c1ccc(O)cc1)c1ccc(OCCNC)cc1)c1ccccc1 [ENDX, Z-endoxifen]
T47D-LTED cells [1]
  Effect on apoptosis (annexin V binding, PARP1 cleavage): induced apoptosis
[2]
  Effect on PKCβ1 protein levels: did not impact PKCβ1 protein levels
  Effect on insulin induced AKT^Ser473 phosphorylation: did not inhibit this phosphorylation
PKC gamma (PKCg)
  IC50: 49.7 µM
T47D-LTED cells [3]
  Effect on growth: inhibited growth
PKC thetha (PKCq)
  IC50: 41.8 µM
